From ChEMBL document CHEMBL1158398, “New cyclopentane derivatives as inhibitors of steroid metabolizing enzymes AKR1C1 and AKR1C3” (Eur J Med Chem, 2009) come the findings set out here.

Calls of active or inactive are those of the source. No cut-off for these calls is given here.

Data set [1] deals with T1, Aldo-keto reductase family 1 member C3 (Homo sapiens) (UniProt P42330).
T1 sequence (whole entry): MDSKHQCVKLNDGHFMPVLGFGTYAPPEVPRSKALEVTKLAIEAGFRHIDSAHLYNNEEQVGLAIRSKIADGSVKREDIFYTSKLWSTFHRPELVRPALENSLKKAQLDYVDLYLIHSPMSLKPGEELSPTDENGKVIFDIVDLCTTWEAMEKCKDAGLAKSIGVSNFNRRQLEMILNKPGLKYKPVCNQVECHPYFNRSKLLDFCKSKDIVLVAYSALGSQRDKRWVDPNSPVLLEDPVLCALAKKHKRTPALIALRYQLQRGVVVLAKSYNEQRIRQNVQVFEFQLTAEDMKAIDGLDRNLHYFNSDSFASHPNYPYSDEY
Description: Inhibition of human recombinant GST-tagged AKR1C3 expressed in Escherichia coli BL21 at 100 uM.

For data set [2], the target named is T2, Aldo-keto reductase family 1 member C1 (Homo sapiens) (UniProt Q04828).
T2 sequence (whole entry): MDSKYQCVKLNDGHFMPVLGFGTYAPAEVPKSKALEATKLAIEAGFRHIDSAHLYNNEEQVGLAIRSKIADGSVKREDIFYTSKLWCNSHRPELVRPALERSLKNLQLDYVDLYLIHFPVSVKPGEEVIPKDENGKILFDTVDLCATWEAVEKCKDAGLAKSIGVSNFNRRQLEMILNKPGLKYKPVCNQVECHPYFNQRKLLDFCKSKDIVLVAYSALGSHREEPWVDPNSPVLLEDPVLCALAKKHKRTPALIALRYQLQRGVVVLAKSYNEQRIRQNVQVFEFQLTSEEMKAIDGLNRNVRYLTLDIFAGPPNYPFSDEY
As to the kind of experiment: Inhibition of human recombinant GST-tagged AKR1C1 expressed in Escherichia coli BL21 at 100 uM.

The target of data set [3] is T3, Aldo-keto reductase family 1 member C1 (Homo sapiens, UniProt Q04828).
T3 sequence (Q04828 whole entry): T2 sequence (whole entry)
As to the kind of experiment: Inhibition of human recombinant GST-tagged AKR1C1 expressed in Escherichia coli BL21.

The target in data set [4] is T1, Aldo-keto reductase family 1 member C3 (Homo sapiens). As to the kind of experiment: Inhibition of human recombinant GST-tagged AKR1C3 expressed in Escherichia coli BL21 at 50 uM.
Data set [5] in a line: Solubility of the compound. The format is physicochemical.
The target in data set [6] is T2, Aldo-keto reductase family 1 member C1 (Homo sapiens). As to the kind of experiment: Inhibition of human recombinant GST-tagged AKR1C1 expressed in Escherichia coli BL21 at 50 uM.
The target of data set [7] is T4, Aldo-keto reductase family 1 member C3 (Homo sapiens, UniProt P42330).
T4 sequence (P42330 whole entry): T1 sequence (whole entry)
As to the kind of experiment: Inhibition of human recombinant GST-tagged AKR1C3 expressed in Escherichia coli BL21.

Data set [8] deals with T2, Aldo-keto reductase family 1 member C1 (Homo sapiens). Description: Competitive inhibition of human recombinant GST-tagged AKR1C1 expressed in Escherichia coli BL21 at 36.2 uM by Lineweaver-Burke plot analysis.
Data set [9] shares this target. As to the kind of experiment: Competitive inhibition of human recombinant GST-tagged AKR1C1 expressed in Escherichia coli BL21 at 17.4 uM by Lineweaver-Burke plot analysis.
For data set [10] the target is unchanged. As to the kind of experiment: Competitive inhibition of human recombinant GST-tagged AKR1C1 expressed in Escherichia coli BL21 at 72.5 uM by Lineweaver-Burke plot analysis.

Take `Cc1ccc(S(=O)(=O)N[C@@H]2CCC[C@H]2Br)cc1` (relative stereo): the values for the inhibition in data set [1] and in data set [2] were 9.2% and 20.3%, respectively.

As for `O[C@@H]1CCC[C@H]1Cc1ccccc1` (relative stereo), the inhibition result in [1] was “inactive”. In data set [2], the inhibition is 13.8%.

As to `O=C(O)C1(c2ccccc2)CCCC1`, the inhibition in [1] was determined as 5.8%. In addition, in data set [2], the inhibition was 53.5%. Also, in [3], the IC50 is 72.9 µM and the Ki worked out at 35.8 µM.

As for `OC1CCCC1(Cc1ccccc1)Cc1ccccc1` (stereo unspecified), the inhibition in data set [4] came to 67.3%; in [6] it was 15.9%. Further, the solubility entry in [5] was “Insoluble”.

With `Cc1ccc(S(=O)(=O)N2C3CCCC32)cc1` (stereo unspecified), the results for the inhibition in data set [1] and in data set [2] were 2.7% and 2.1%, respectively.

In the case of `O[C@H]1CCC[C@H]1Cc1ccccc1` (relative stereo), the inhibition entry in [1] is “inactive”. The inhibition in [2] turned out to be 9.7%.

Take `OC1C(Cc2ccccc2)CCC1Cc1ccccc1` (stereo unspecified): the results for the inhibition in [4] and in data set [6] were 46.6% and 11.5%, respectively. In addition, the solubility entry in [5] was “Insoluble”.

As to `Cc1ccc(S(=O)(=O)N[C@@H]2CCC[C@H]2C(=O)O)cc1` (relative stereo), in data set [1], the inhibition entry was “inactive”. Also, in data set [2], the inhibition turned out to be 26.1%.

Take `O=C1CCC/C1=C\c1ccc(Cl)cc1`: the IC50 in data set [7] turned out to be 36.7 µM; in data set [3], 35 µM. Further, the Ki in data set [7] is 33.4 µM; in [3], 17.2 µM. In addition, the outcome in data set [8], in data set [9] and in data set [10] was Active. Also, the inhibition came to 88.8% in data set [1] and 77.8% in [2].

Regarding `COC1CCC/C1=C\c1ccc(Cl)cc1` (stereo unspecified), the IC50 in [7] stood at 17.8 µM. Besides, the Ki in data set [7] was found to be 16.2 µM. Moreover, the inhibition is 87.4% in data set [1] and 40.1% in [2].

Consider `Cc1ccc(S(=O)(=O)N[C@@H]2CCC[C@H]2C(N)=O)cc1` (relative stereo), for which the inhibition entry in [1] was “inactive”. Besides, in [2], the inhibition stood at 12.9%.

On to `O[C@@H]1CCC[C@H]1Nc1ccccc1` (relative stereo), for which the inhibition entry in data set [1] is “inactive”. The inhibition in data set [2] was 14.7%.

Regarding `O=C(O)C1CCC(c2ccccc2)C1` (stereo unspecified), the IC50 stood at 76.6 µM in [7] and 98.6 µM in [3]. In addition, the inhibition constant Ki in data set [7] was found to be 69.6 µM; in [3], 48.5 µM. Besides, the inhibition in data set [1] amounted to 52.7%; in [2], 55.4%.

With `CCOC1CCC/C1=C\c1ccc(Cl)cc1` (stereo unspecified), the IC50 in [7] was determined as 22.5 µM; in data set [3] it was 62.1 µM. Besides, the Ki in [7] worked out at 20.5 µM; in [3] it was 30.5 µM. In addition, the inhibition in [1] came out at 83.9%; in data set [2], 52.9%.

On to `Cc1ccc(S(=O)(=O)N[C@@H]2CCC[C@H]2C#N)cc1` (relative stereo), for which the inhibition entry in data set [1] was “inactive”. In addition, the inhibition in data set [2] came to 15.9%.
